Paper PMC10977697 (PLOS ONE, 2024)
Where no end group is shown, it is not given here.

Tested on: ApoL1
Experiment: Spot phage ELISA, ApoL1
Assay type: binding, human
Settings: ratio of signal for target protein over BSA background

**Q.** With “GCKFMNWKCKQDSDCLAGCVCTENEPCG (also: bicyclic or more (positions not given here)) [ApoL1 EET I-II 2]” as the sequence, how does the S/N read?
**A.** The S/N was 53.2.

**Q.** For “GCKFRLWFCKQDSYCLPGCVCGPNGFCG (also: bicyclic or more (positions not given here)) [ApoL1 EET I-II 42]”, which S/N is on record?
**A.** The S/N was 7.2.

**Q.** How did the S/N turn out when “GCKFRLWHCKQDSDCLAGCVCTAQPDCG (also: bicyclic or more (positions not given here)) [ApoL1 EET I-II 47]” was run?
**A.** The S/N was 3.6.

**Q.** Which S/N does the source give for “GCKFRNWLCKQDSDCLAGCVCPWDTHCG (also: bicyclic or more (positions not given here)) [ApoL1 EET I-II 43]” here?
**A.** The S/N was 6.6.

**Q.** For “GCKFRRWKCKQDSDCLAGCVCDPQGPCG (also: bicyclic or more (positions not given here)) [ApoL1 EET I-II 39]”, which S/N is on record?
**A.** The S/N was 9.9.

**Q.** With “GCKFWFWRLCKQDSDCLAGCVCAGSPPCG (also: bicyclic or more (positions not given here)) [ApoL1 EET I-II 35]” as the sequence, how does the S/N read?
**A.** Its S/N is 14.1.

**Q.** Which S/N does the source give for “GCKFWLHRYKQDSDCLAGCVCGPNVFG [ApoL1 EET I-II 4]” here?
**A.** Its S/N is 47.1.

**Q.** “GCKFWSRFCKQDSDCLAGCVCKNTDHCG (also: bicyclic or more (positions not given here)) [ApoL1 EET I-II 6]” was tested. Which S/N did it give?
**A.** Its S/N is 44.8.

**Q.** “GCKMKKYMCKQDSDCLAGCVCHQQSKCG (also: bicyclic or more (positions not given here)) [ApoL1 EET I-II 40]” was tested. Which S/N did it give?
**A.** Its S/N is 8.9.

**Q.** For “GCKYKCKQDSDCLAGCVCQQQGGCG (also: bicyclic or more (positions not given here)) [ApoL1 EET I-II 14]”, which S/N is on record?
**A.** Its S/N is 40.2.

**Q.** For “GCLFKKAMGFCKQDSDCLAGCVCREMSHCG (also: bicyclic or more (positions not given here)) [ApoL1 EET I-II 3]”, which S/N is on record?
**A.** The S/N was 52.4.

**Q.** “GCLFKQEMGTCKQDSDCLAGCVCEFQQKCG (also: bicyclic or more (positions not given here)) [ApoL1 EET I-II 16]” was tested. Which S/N did it give?
**A.** The S/N was 40.2.

**Q.** For “GCLFKRHFCKQDSDCLAGCVCVDQFPCG (also: bicyclic or more (positions not given here)) [ApoL1 EET I-II 21]”, which S/N is on record?
**A.** The S/N was 35.5.

**Q.** For “GCLFRRNFCKQDSDCLAGCVCEPFPECG (also: bicyclic or more (positions not given here)) [ApoL1 EET I-II 31]”, which S/N is on record?
**A.** The S/N was 17.5.

**Q.** For “GCMFKAHWCKQDSDCLAGCVCHRSALCG (also: bicyclic or more (positions not given here)) [ApoL1 EET I-II 12]”, which S/N is on record?
**A.** The S/N was 41.1.

**Q.** For “GCMFKQRHCKQDSDCLAGCVCSQGQPCG (also: bicyclic or more (positions not given here)) [ApoL1 EET I-II 5]”, which S/N is on record?
**A.** Its S/N is 47.1.

**Q.** How did the S/N turn out when “GCMFKRYFCKQDSDCLAGCVCPHDDQCG (also: bicyclic or more (positions not given here)) [ApoL1 EET I-II 34]” was run?
**A.** The S/N was 14.2.

**Q.** For “GCMFLRHFNRCKQDSDCLAGCVCPHIPDCG (also: bicyclic or more (positions not given here)) [ApoL1 EET I-II 26]”, which S/N is on record?
**A.** Its S/N is 24.0.

**Q.** “GCMFQMHFCKQDSDCLAGCVCGMSDCCG [ApoL1 EET I-II 27]” was tested. Which S/N did it give?
**A.** Its S/N is 23.7.

**Q.** “GCRFKRHKCKQDSDCLAGCVCPEMSTCG (also: bicyclic or more (positions not given here)) [ApoL1 EET I-II 15]” was tested. Which S/N did it give?
**A.** The S/N was 40.2.

**Q.** With “GCRFMSHMRKRECKQDSDCLAGCVCDYQTACG (also: bicyclic or more (positions not given here)) [ApoL1 EET I-II 1]” as the sequence, how does the S/N read?
**A.** The S/N was 70.0.

**Q.** For “GCRFREMFYKVTCKQDSDCLAGCVCSHEANCG (also: bicyclic or more (positions not given here)) [ApoL1 EET I-II 8]”, which S/N is on record?
**A.** The S/N was 43.8.

**Q.** With “GCRFRLWAMKSHCKQDSDCLAGCVCSDYSDCG (also: bicyclic or more (positions not given here)) [ApoL1 EET I-II 13]” as the sequence, how does the S/N read?
**A.** The S/N was 40.4.

**Q.** For “GCRFRQHWCKQDSDCLAGCVCLEQPECG (also: bicyclic or more (positions not given here)) [ApoL1 EET I-II 24]”, which S/N is on record?
**A.** The S/N was 30.3.
